Our source for the Kd, kon and koff values is article PMC11797554, “Chemical genetics reveals cross-regulation of plant developmental signaling by the immune peptide-receptor pathway” (Science Advances, 2024).

Test [1] concerns the target T1, MPK6 (Arabidopsis thaliana, UniProt Q39026).
T1 construct: MPK6ΔNt (29 to 305)
The experiment in a line: biochemical. On the set-up: isothermal titration calorimetry, 25 °C, PBS pH 7.4, 2% DMSO.

Test [2] concerns the target T1, MPK6. The experiment in a line: biochemical. On the set-up: biolayer interferometry (Octet Red96), GST-tagged protein on probe, 25 °C, 1:1 model. The note with it: read-out: kon (M^-1s^-1).
In test [3] the target is T1, MPK6. The experiment in a line: biochemical. On the set-up: biolayer interferometry (Octet Red96), GST-tagged protein on probe, 25 °C, 1:1 model. The note with it: read-out: koff (s^-1).
In test [4] the target is T1, MPK6. Nature of the test: BLI and ITC with recombinant MPK6; also in vitro kinase inhibition. Type of test: binding.
Test [5] has as its target CA-MPK6 (constitutively active MPK6) (Arabidopsis thaliana, UniProt Q39026, D218G/E222A). Nature of the test: biochemical. Type of test: binding.

T1 sequence (Q39026 29-305): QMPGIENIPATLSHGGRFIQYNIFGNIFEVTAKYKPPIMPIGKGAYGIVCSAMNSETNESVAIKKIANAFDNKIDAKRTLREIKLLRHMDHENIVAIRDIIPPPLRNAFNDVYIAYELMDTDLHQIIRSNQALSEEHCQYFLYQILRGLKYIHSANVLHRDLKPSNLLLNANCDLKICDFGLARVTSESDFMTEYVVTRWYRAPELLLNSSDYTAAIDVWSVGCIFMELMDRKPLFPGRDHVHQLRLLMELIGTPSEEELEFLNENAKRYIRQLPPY
Chain of CA-MPK6 (constitutively active MPK6) (Q39026 29-305 D218G/E222A limits assumed): as the sequence (Q39026 29-305) above, with D190G, E194A counted along it

Consider `Nc1ncnc2c1ncn2[C@@H]1O[C@H](COP(=O)(O)OP(=O)(O)OP(=O)(O)O)[C@@H](O)[C@H]1O` [ATP], for which binding in test [1] was put at a Kd of 1.2 ± 0.3 µM. Besides, the kon in test [2] amounted to 8920 M⁻¹ s⁻¹. In test [3], the koff came out at 0.0125 s⁻¹.
As to `O=P(O)(O)C(O)c1ccc2ccccc2c1` (stereo not shown) [compound 2, hydroxy-2-naphthalenymethylphosphonic acid], the Kd was 4.9 ± 0.6 µM in test [4] and 58 ± 13 µM in test [5]. Also, the kon in test [2] was 3020 M⁻¹ s⁻¹. Also, the koff in test [3] turned out to be 0.0175 s⁻¹.

As a reminder, the Kd is the equilibrium constant for the complex coming apart. The kon is a measure of how fast the partners come together. As usually defined, the koff is a measure of how fast the partners let go of each other.
